1 molecule from patent publication US8338151B2, “Method for creating intracellular artificial nanostructures in situ” (The Hong Kong University of Science and Technology, priority 2005, dated 2012) can be followed below.

The nature of this series: Minimum gelation concentration / hydrogelation ability. The series is classed as physicochemical. An excerpt:
In this embodiment, precursors bearing the general formula C10H7CH2C(O)—ZZ (where Z is the residue of an amino acid) was used.
For this precursor, it is possible to use the enzyme kinase/phosphatase pair as an enzyme switch because (i) FF is prone to self-assembly (ii) Nap-FF gels water effectively (at 0.8 wt %), and (iii) the residue of Glu-Tyr (EY) accepts phosphorylation in the presence of a tyrosine kinase and the phosphorylation process can be reversed by phosphatase.
One of the motivations to use naphthalene (Nap) rather than N-(fluorenyl-methoxycarbonyl) (FMOC) is that Nap should be more biocompatible, as evidenced by several clinical drugs consisting of a Nap motif (i. e., propranolol, naphazoline, nafronyl). The glycine (G) was used to connect Nap-FF with EY because glycine is the simplest amino acid. Unlike other pentapeptides, FFGEY is not a known epitope of any protein, but it carries the basic structural requirement to serve as the substrate of the tyrosine kinase. After obtaining precursor IIIa through solid-phase synthesis, the hydrogelation ability of IIIa was tested. Via a slight adjustment of pH (from 7.8 to 7.5), IIIa forms a transparent hydrogel in water at 0.6 wt %). The successful hydrogelation of IIIa implies that Nap-FF also may act as a useful motif to conjugate with other amino acid residues to construct hydrogelators. […]

Take `O=C(Cc1ccc2ccccc2c1)N[C@@H](Cc1ccccc1)C(=O)N[C@@H](Cc1ccccc1)C(=O)O` [C10H7CH2C(O)-L-Phe-L-Phe]: the “minimum gelation concentration (mgc)” value was “ca. 0.4%”. The “concentration at which a hydrogel forms in water” value (water) turned out to be 0.8 wt %.
